Data on 13 compounds can be found in ChEMBL document CHEMBL3817819, “Development and application of ligand-based NMR screening assays for -butyrobetaine hydroxylase” (Medchemcomm, 2016).

pIC50, pKd: −log10 of the molar value. Calls of active or inactive are those of the source. No cut-off for these calls is given here. Bounds are passed on as bounds.

For test [1], the target named is T1, Gamma-butyrobetaine dioxygenase (Pseudomonas sp. (strain AK-1)) (UniProt P80193).
T1 sequence (whole entry): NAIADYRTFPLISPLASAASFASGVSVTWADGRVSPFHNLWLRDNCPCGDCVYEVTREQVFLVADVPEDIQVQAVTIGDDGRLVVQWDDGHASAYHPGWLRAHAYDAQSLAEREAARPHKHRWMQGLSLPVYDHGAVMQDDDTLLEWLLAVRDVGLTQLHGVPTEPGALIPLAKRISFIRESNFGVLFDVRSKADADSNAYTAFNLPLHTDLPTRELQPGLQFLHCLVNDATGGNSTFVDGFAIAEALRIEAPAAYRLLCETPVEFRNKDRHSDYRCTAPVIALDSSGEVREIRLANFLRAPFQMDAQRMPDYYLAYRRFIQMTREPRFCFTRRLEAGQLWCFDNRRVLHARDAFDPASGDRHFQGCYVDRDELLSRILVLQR
The test can be described thus: Inhibition of 2OG binding to Pseudomonas sp. AK1 BBOX at 25 uM in presence of Mn2+ by 1H NMR GBB/2OG dual reporter displacement assay.

In test [2] the target is T1, Gamma-butyrobetaine dioxygenase (Pseudomonas sp. (strain AK-1)). The test can be described thus: Inhibition of GBB binding to Pseudomonas sp. AK1 BBOX at 25 uM in presence of Mn2+ by 1H NMR GBB/2OG dual reporter displacement assay.
The target in test [3] is T2, Gamma-butyrobetaine dioxygenase (Pseudomonas sp. (strain AK-1), UniProt P80193).
T2 sequence (P80193 whole entry): T1 sequence (whole entry)
The test can be described thus: Binding affinity to Pseudomonas sp. AK1 BBOX by intrinsic tryptophan fluorescence quenching assay.

Test [4] addresses T2, Gamma-butyrobetaine dioxygenase. The experiment in a line: Inhibition of Pseudomonas sp. AK1 BBOX assessed as hydroxylation of GBB to L-carnitine measured for 60 sec in presence of 2OG and Fe2+ by 1H NMR assay.
The target is the same in test [5]. The experiment in a line: Inhibition of Pseudomonas sp. AK1 BBOX using GBBF as substrate after 10 mins in presence of 2OG and Fe2+ using TBS-protected fluorescein probe by fluoride release assay.
In test [6] the target is T3, Gamma-butyrobetaine dioxygenase (Homo sapiens, UniProt O75936).
T3 sequence (O75936 whole entry): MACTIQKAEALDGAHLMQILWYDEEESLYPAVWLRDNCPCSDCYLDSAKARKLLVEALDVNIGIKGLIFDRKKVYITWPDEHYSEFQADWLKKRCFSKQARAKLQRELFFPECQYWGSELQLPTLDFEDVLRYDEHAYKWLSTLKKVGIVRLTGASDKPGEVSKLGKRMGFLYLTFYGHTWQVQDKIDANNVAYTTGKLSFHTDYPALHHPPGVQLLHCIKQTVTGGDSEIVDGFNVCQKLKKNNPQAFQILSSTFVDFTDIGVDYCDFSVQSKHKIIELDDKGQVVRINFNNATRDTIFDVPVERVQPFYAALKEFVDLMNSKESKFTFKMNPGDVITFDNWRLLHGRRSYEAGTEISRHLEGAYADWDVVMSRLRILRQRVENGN
The test can be described thus: Inhibition of human BBOX using GBBF as substrate in presence of 2OG and Fe2+ using TBS-protected fluorescein probe by fluoride release assay.

For test [7], the target named is T1, Gamma-butyrobetaine dioxygenase (Pseudomonas sp. (strain AK-1)). The test can be described thus: Induction of GBB binding to Pseudomonas sp. AK1 BBOX at 25 uM in presence of Mn2+ by 1H NMR GBB/2OG dual reporter displacement assay.

By pKd is commonly meant −log10 of the Kd, conventionally taken in molar units. High values mean a low Kd, low ones a high Kd. The pIC50 is the IC50 on a negative log10 scale, so that one unit is a factor of ten. For the compound `CC(C)C[C@H](NC(=O)c1nc(Cl)c2ccccc2c1O)C(=O)O`, the inhibition result in test [1] and in test [2] was “Active” each time. Also, in test [3], the negative-log Kd (pKd) was 4.26. The negative logarithm of the IC50 (pIC50) in test [4] is 4.59; in test [5], 3.90.

In turn, `O=C(N[C@H](Cc1c[nH]c2ccccc12)C(=O)O)c1nc(Cl)c2ccccc2c1O` gave a pKd in test [3] of 3.77. The pIC50 is 4.74 in test [4], less than 3.00 in test [5] and 4.48 in test [6].

As for `O=C(O)CNC(=O)c1nc(Cl)c2ccccc2c1O`, in test [1], the inhibition result was “Active”. Further, in test [2], the inhibition entry is “inactive”. In test [3], this compound gave a pKd of 4.66. In addition, the negative-log IC50 (pIC50) in test [4] is 6.68; in test [5], 5.92. In addition, the result in test [7] was Active.

Regarding `O=C(O)CC[C@@H](NC(=O)c1nc(Cl)c2ccccc2c1O)C(=O)O`, the inhibition entry in test [1] and in test [2] was “inactive” in each case. Further, the pKd in test [3] was 4.05. Besides, the pIC50 is 4.07 in test [4] and less than 3.00 in test [5].

`O=C(O)CC[C@H](NC(=O)c1nc(Cl)c2ccccc2c1O)C(=O)O` gave a pKd in test [3] of 4.19. Further, the pIC50 is 4.66 in test [4] and 3.83 in test [5].

As for `CC(C)[C@H](NC(=O)c1nc(Cl)c2ccccc2c1O)C(=O)O`, the inhibition entry in test [1] and in test [2] was “Active” in each case. The compound further gave a pKd in test [3] of 4.26. For the same compound, the figures for the pIC50 in test [4] and in test [5] were 4.64 and 3.89, respectively.

Regarding `O=C(N[C@H](Cc1ccccc1)C(=O)O)c1nc(Cl)c2ccccc2c1O`, in test [3], the negative logarithm of the Kd (pKd) was 4.09. In addition, the pIC50 was 4.42 in test [4] and 4.00 in test [5].

In the case of `CC(C)C[C@@H](NC(=O)c1nc(Cl)c2ccccc2c1O)C(=O)O`, the inhibition entry in test [1] and in test [2] was “inactive” throughout. In test [3], this compound gave a negative-log Kd (pKd) of 3.99. The pIC50 in test [4] was 4.03; in test [5], less than 3.00.

As to `O=C(N[C@@H](Cc1c[nH]c2ccccc12)C(=O)O)c1nc(Cl)c2ccccc2c1O`, the inhibition result in test [1] and in test [2] was “Active” each time. For the same compound, in test [3], the negative-log Kd (pKd) was 4.54. Further, the pIC50 is 6.05 in test [4], 4.59 in test [5] and 4.96 in test [6].

As for `O=C(N[C@@H](Cc1ccccc1)C(=O)O)c1nc(Cl)c2ccccc2c1O`, the inhibition result in test [1] and in test [2] was “Active” throughout. The same compound showed a pKd in test [3] of 4.59. Further, the negative-log IC50 (pIC50) in test [4] was 6.00; in test [5], 4.89.

Turning to `CC(C)[C@@H](NC(=O)c1nc(Cl)c2ccccc2c1O)C(=O)O`, the inhibition result in test [1] and in test [2] was “inactive” in each case. In test [3], this compound gave a negative-log Kd (pKd) of 3.84. For the same compound, the pIC50 in test [4] is 3.72; in test [5], less than 3.00.

In test [3], `O=C(O)C[C@@H](NC(=O)c1nc(Cl)c2ccccc2c1O)C(=O)O` had a pKd of 4.00. The pIC50 in test [4] was 4.42; in test [5], 3.80.

With `O=C(O)C[C@H](NC(=O)c1nc(Cl)c2ccccc2c1O)C(=O)O`, the inhibition entry in test [1] is “Active”. The inhibition result in test [2] is “inactive”. Besides, the negative-log Kd (pKd) in test [3] was 4.04. Further, the pIC50 in test [4] is 4.12; in test [5] it was 3.61.
